Results on two substances are retold here after article PMC5485657 (The Journal of Venomous Animals and Toxins Including …, 2017).

Ends that are not written are not given here.

The test system of one assay is BK-induced rat paw edema. Nature of the assay: Bradykinin-potentiating activity in vivo (rat paw edema). Set-up: species or system Male Wistar rats. Particulars: intraplantar BK 40 ng/mL (2 ng in 50 μL saline). How it is done:
Male Wistar (200 g-250 g) rats, bred at the Nuclear and Energy Research Institute (IPEN), São Paulo, SP, Brazil were used for the in vivo assays. The animals had access to food and water ad libitum, and were kept under a 12 h-light/dark cycle. Procedures involving animals and their care were in accordance with the guidelines for the use of animals on biomedical research and were approved by the Animal Ethics Committee (protocol 171/16) of IPEN.
Edema was induced by intraplantar injection of 2 ng of BK diluted in 50 μL saline into the left hind paw, which was measured every 5 min for 40 min by a plethysmograph (H. Basile, Italy). The right paw was injected with 50 μL […] saline (NaCl 0.9% w/v). In parallel, a group was injected with the synthetic potentiating peptide (40 ng/mL) in the left paw 10 min before the injection of BK, in order to evaluate the potentiation of BK. In both cases, the volume of the right paw was subtracted from that of volume of the left paw, to give net edema, expressed in μL.
One-way analysis of variance (ANOVA) was performed. The significance level was considered as p < 0.05.

The next assay deals with paw edema. On the set-up: method as in PMID 15688321. Particulars: previous study, similar approach; cited from earlier work.

Take “Bradykinin (RPPGFSPFR; also: acetate salt; UniProt P01042 381-389, looked up) [BK]”: the “time at which induced edema was detectable” value in the assay on BK-induced rat paw edema (plethysmograph) turned out to be 5 min. The “time course of edema (in words)” value in the assay on BK-induced rat paw edema (plethysmograph every 5 min for 40 min) was “declined at a constant rate over the next 40 min”.

On to QWAQWPRPQIPP [BPP9a, B. jararaca BPP9a], for which the “paw edema (in words)” value in the assay with paw edema was “intense and fast paw edema”.
